Key:
Type in all cases: cell-based
TREM2 = target: T1, TREM2 (Homo sapiens, UniProt Q9NZC2); test: Liposome stimulation pSyk AlphaLISA, HEK293 overexpressing TREM2 and DAP12; settings: liposomes 30% lipid/70% PC (KLA 10%/90%), fold change over HBSS
T1 construct: expressed in transfected cells
Protocol: (§1) Lipids were purchased from Avanti Polar Lipids (Alabaster, Ala.) or Echelon Biosciences (Salt Lake City, Utah). Each screened lipid was resuspended in chloroform and added at 30 mole percent composition to 70 mole percent phosphatidylcholine (PC; 1,2-dioleoyl-sn-glycero-3-phosphocholine, Avanti Polar Lipids). Kdo2-Lipid A was added at a 10 mole percent composition with 90 mole percent PC. Lipid mixes were dried under nitrogen gas and resuspended in HBSS at a concentration of 4 mg/mL. Mixes were vortexed or briefly sonicated until resuspended, then bath sonicated for 1-5 minutes. Liposomes were used for 1-2 weeks. 3 independent batches of liposomes were used in experiments.
(§2) HEK293 cell lines overexpressing TREM2 and DAP12, mutant TREM2-R47H and DAP12, or DAP12 alone were plated in 96-well PDL-coated plates at a density of 40,000 cells per well and cultured for 36-48 hours until 90-100% confluent.
(§3) Cell culture medium was removed and cells were washed once with 200ul HBSS. Liposomes were diluted in HBSS in concentrations ranging from 0.03125 mg/mL to 2 mg/mL, then 50 μl was added to wells in 2-3 technical replicates per plate. Each plate contained HBSS negative control wells, 100% PC liposome control, 5 μg/mL agonist anti-TREM2 positive control (Abnova; Taiwan; # MAB2056), and 5 μg/mL mouse IgG3 isotype control (R&D Systems; Minneapolis, Minn.; # MAB007). Stimuli were incubated with cells for 5 minutes at 37° C., 5% CO2, liposomes were removed, and plates were frozen at −80° C.
(§4) Cells were lysed for 30 minutes to 1 hour on ice in 50 ul/well Cell Lysis Buffer (Cell Signaling Technology; Danvers, Mass.; #9803) with 1 mM PMSF. AlphaLISA SureFire Ultra p-Syk Tyr525/526 assay kit (PerkinElmer, ALSU-PSYK-A10OK) was used to measure pSyk levels in lysate as per manufacturer protocol. 10 μl lysate was added to 384-well OptiPlates (PerkinElmer; #6007290) and an EnVision Multilabel Plate Reader (PerkinElmer) was used to measure AlphaLISA fluorescence.
(§5) PSyk AlphaLISA fluorescence was converted to a log 2 scale. Fluorescence values from liposomes and controls were each subtracted from average fluorescence values from HBSS stimulated wells on the same plate (log 2(liposome)−log 2(HBSSave)=log 2(signal)). The result was converted back to a standard scale to measure fold change (2^log 2(signal)=fold change). Technical replicate fold changes values were averaged to obtain the fold change over background listed (pSyk FOB). Graphs represent values from independent experiments or individual human donors. Results from the screen on the HEK293 overexpressing cell lines are shown in Table 9 below and in FIG. 8A-8B. HEK293 results showing specificity for TREM2 over DAP12 expressed alone can be used to extrapolate which lipid species are likely acting as TREM2 ligands on human macrophages.

DAP12 alone = target: T2, DAP12 alone (Homo sapiens, UniProt O43914); test: Liposome stimulation pSyk AlphaLISA, HEK293 expressing DAP12 alone; settings: liposomes 30% lipid/70% PC (KLA 10%/90%), fold change over HBSS
T2 construct: expressed in transfected cells
T2 sequence (O43914 22-113): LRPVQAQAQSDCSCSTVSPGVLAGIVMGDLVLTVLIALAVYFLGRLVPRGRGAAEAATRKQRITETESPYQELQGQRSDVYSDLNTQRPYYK
Protocol: as §1, §2, §3, §4, §5

[1] = test system: primary human macrophages; test: Liposome stimulation pSyk AlphaLISA, primary human macrophages; settings: liposomes 30% lipid/70% PC (KLA 10%/90%)
Protocol: as §1
10 mL human blood was obtained from Blood Centers of the Pacific. Monocytes were extracted using RosetteSep Human Monocyte Enrichment Cocktail ([…] Technologies Inc.; Vancouver, BC; #15068) as per manufacturer protocols. Density gradient was performed with Ficoll-Paque Premium (GE Healthcare Life Sciences; Pittsburgh, Pa.; #17-5442-02). Isolated monocytes were resuspended at ˜1-1.3 million cells/mL and cultured for 5-6 days in RPMI, 10% Hyclone Fetal Bovine Serum, and penicillin/streptomycin supplemented with 50 ng/mL human M-CSF (Gibco, # PHC9501) in T175 tissue culture treated flasks. M-CSF was replenished every 2-3 days. Cells were washed once with PBS, 15 mL fresh medium was added, and cells were harvested by scraping. Cells were cultured overnight at a density of 100,000 cells per well on tissue culture treated 96-well plates supplemented with 10-25 ng/mL M-CSF.
as §3, §4, §5

R47H TREM2 mutant = target: T3, R47H TREM2 mutant (Homo sapiens, UniProt Q9NZC2, R47H); test: Liposome stimulation pSyk AlphaLISA, HEK293 overexpressing TREM2-R47H and DAP12; settings: liposomes 30% lipid/70% PC (KLA 10%/90%), fold change over HBSS
T3 construct: expressed in transfected cells
T3 sequence (Q9NZC2 19-230 R47H): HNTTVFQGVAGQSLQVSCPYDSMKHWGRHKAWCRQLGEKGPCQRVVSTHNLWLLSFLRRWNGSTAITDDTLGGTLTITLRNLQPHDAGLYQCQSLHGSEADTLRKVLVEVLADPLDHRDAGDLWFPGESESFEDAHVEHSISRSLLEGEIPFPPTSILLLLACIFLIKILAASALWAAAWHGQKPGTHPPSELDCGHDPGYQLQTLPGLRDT
T3 sequence (O43914 22-113 partner): as the sequence (O43914 22-113) above
Protocol: as §1, §2, §3, §4, §5

T1 sequence (Q9NZC2 19-230): as the sequence (Q9NZC2 19-230 R47H) above, with H29R counted along it
T1 sequence (O43914 22-113 partner): as the sequence (O43914 22-113) above

Compound	Human TREM2 (pSyk FOB) (TREM2)	DAP12 alone (pSyk FOB) (DAP12 alone)	pSyk FOB [1]	R47H TREM2 mutant (pSyk FOB) (R47H TREM2 mutant)
Ether phosphatidylcholine [Ether phosphatidylcholine (PCe)]	2.94 FOB	1.33 FOB	1.29 FOB	3.97 FOB
Palmitic-acid-9-hydroxy-stearic-acid	5.87 FOB	1.27 FOB	3.94 FOB	7.31 FOB
Galactosylceramide [Galactosylceramide (GalCer)]	3.45 FOB	1.16 FOB	1.98 FOB	4.65 FOB
Sulfatide	5.02 FOB	1.21 FOB	1.75 FOB	6.34 FOB
Cholesteryl ester [Cholesteryl ester (CE)]	4.24 FOB	1.14 FOB	1.62 FOB	10.90 FOB
Cardiolipin [Cardiolipin (CL)]	3.79 FOB	1.26 FOB	2.50 FOB	3.31 FOB
Ceramide	2.20 FOB	1.30 FOB	1.44 FOB	2.21 FOB
Sphingomyelin [Sphingomyelin (SM)]	1.74 FOB	1.40 FOB	1.02 FOB	2.09 FOB
C[C@H](CCCC(C)(C)O)[C@H]1CC[C@H]2[C@@H]3CC=C4C[C@@H](O)CC[C@]4(C)[C@H]3CC[C@]12C [25(S)hydroxycholesterol (25OHC), 25(S)hydroxycholesterol]	2.61 FOB	1.20 FOB	1.14 FOB	6.27 FOB
Phosphatidylglycerol [Phosphatidylglycerol (PG) or DSPG]	2.25 FOB	1.40 FOB	1.85 FOB	3.77 FOB
CCCCCCCCCCCCC/C=C/[C@@H](O)[C@@H](N)COP(=O)(O)O [Sphingosine-1-phosphate (SolP), Sphingosine-1-phosphate]	2.42 FOB	1.64 FOB	2.10 FOB	3.94 FOB
CCCCCCCCCCCCC/C=C/[C@@H](O)[C@@H](N)CO [Sphingosine]	0.67 FOB	1.32 FOB	0.96 FOB	0.85 FOB
Phosphatidic acid [Phosphatidic acid (PA)]	2.17 FOB	1.48 FOB	2.17 FOB	2.72 FOB
Oxidized phosphatidylcholine [Oxidized phosphatidylcholine (oxPC)]	0.81 FOB	1.26 FOB	1.25 FOB	0.68 FOB
Lactosylceramide [Lactosylceramide (LacCer)]	1.89 FOB	1.27 FOB	1.29 FOB	2.06 FOB
Phosphatidylinositol [Phosphatidylinositol (PI)]	4.31 FOB	1.04 FOB	2.09 FOB	2.27 FOB
Lysophosphatidylethanolamine [LysophosphatidyLethanolamine (LPE)]	4.16 FOB	1.28 FOB	2.03 FOB	3.58 FOB
Lysophosphatidic acid [Lysophosphatidic acid (LPA)]	3.69 FOB	1.17 FOB	1.82 FOB	3.62 FOB
CC(C)[C@@H](O)CC[C@@H](C)[C@H]1CC[C@H]2[C@@H]3CC=C4C[C@@H](O)CC[C@]4(C)[C@H]3CC[C@]12C [24(S)hydroxycholesterol (24OHC), 24(S)hydroxycholesterol]	4.50 FOB	1.57 FOB	1.56 FOB	8.44 FOB
Lysophosphatidylinositol [Lysophosphatidylinositol (LPI)]	1.12 FOB	1.03 FOB	1.61 FOB	0.32 FOB
CCCCCCCC(=O)OC[C@H](COP(=O)(O)OP(=O)(O)O)OC(=O)CCCCCCC [Diacylglycerol pyrophosphate (DGPP), Diacylglycerol pyrophosphate]	3.42 FOB	1.16 FOB	1.61 FOB	3.70 FOB
Ceramide-1-phosphate [Ceramide-1-phosphate (C1P)]	3.89 FOB	1.16 FOB	2.28 FOB	4.00 FOB
Phosphatidylethanolamine [Phosphatidylethanolamine (PE) or DSPE]	1.49 FOB	1.51 FOB	1.53 FOB	2.49 FOB
C[C@@H](CO)CCC[C@@H](C)[C@H]1CC[C@H]2[C@@H]3CC=C4C[C@@H](O)CC[C@]4(C)[C@H]3CC[C@]12C [27-hydroxycholesterol (27OHC), 27-hydroxycholesterol]	5.26 FOB	1.36 FOB	1.72 FOB	9.25 FOB
CC(C)CCC[C@@H](C)[C@H]1CC[C@H]2[C@@H]3CC=C4C[C@@H](OP(=O)(O)O)CC[C@]4(C)[C@H]3CC[C@]12C [Cholesterol phosphate (CP), Cholesterol phosphate]	2.43 FOB	1.27 FOB	1.18 FOB	3.09 FOB
CC(C)CCC[C@@H](C)[C@H]1CC[C@H]2[C@@H]3CC=C4C[C@@H](O)CC[C@]4(C)[C@H]3CC[C@]12C [Free cholesterol (FC), Free cholesterol]	1.04 FOB	1.14 FOB	1.44 FOB	2.24 FOB
Phosphatidylethanol [Phosphatidylethanol (PEtOH)]	3.00 FOB	1.57 FOB	1.61 FOB	4.83 FOB
